Laboratory results: patent publication US6806265B2, “Non-nucleoside reverse transcriptase inhibitors” (priority 2002, dated 2004)
pEC50, pIC50: −log10 of the molar value.

Experiments:
[1] = molecular target: T1, HIV-1 RT double mutant K103N/Y181C (Human immunodeficiency virus type 1 group M subtype B, UniProt P03366, K702N/Y780C); assay: biochemical
T1 construct: HIV-1 wild type reverse transcriptase as well as the clinically significant double mutant K103N/Y181C
Description: (§1) Utilizing the Reverse Transcriptase (RT) Assay described below, compounds were tested for their ability to inhibit the RNA-dependent DNA polymerase activity of HIV-1 RT. Certain specific compounds described in the Examples and in Tables 1-4, were so tested. The results of this testing appear in Table 5 as ranges of IC50 (nM) and EC50 (nM).
(§2) Reverse Transcriptase (RT) Assays

[2] = molecular target: T2, HIV-1 wild type reverse transcriptase (Human immunodeficiency virus type 1 group M subtype B, UniProt P03366); assay: biochemical; conditions: wild type RT; read-out: IC50 WT RT
T2 construct: HIV-1 wild type reverse transcriptase
Description: as §1, §2

HIV-1 wild type = assay: microbe, parasite or virus in culture; assay type: cell-based; conditions: Human immunodeficiency virus 1; wild type; read-out: EC50 WT RT
[3] = system: HIV-1 double mutant K103N/Y181C; assay: microbe, parasite or virus in culture; assay type: cell-based; conditions: Human immunodeficiency virus 1, read-out: EC50 K103N/Y181C (nM)

SMILES | pIC50 [1] | pIC50 [2] | pEC50 (HIV-1 wild type) | EC50 [3]
CCN1c2ncc(CCOc3ccc(NC(=O)C4CC4C(=O)O)cc3C)cc2C(=O)N(C)c2cccnc21 (stereo not drawn) [Entry 4009] | < 7.00 | > 7.30 | > 8.00 | > 50 nM
CCN1c2ncc(CCOc3ccc(C(=O)NN)cc3C)cc2C(=O)N(C)c2cccnc21 [Entry 4011, 4-[2-(11-Ethyl-6,11-dihydro-5-methyl-6-oxo-5H-dipyrido[3,2-b:2′,3′-e][1,4]diazepin-8-yl)ethoxy]-3-methylbenzoic acid hydrazide] | > 7.30 | > 7.30 | > 8.00 | < 10 nM
CCN1c2ncc(CCOc3ccc(C(=O)NC(C)(C)C(=O)O)cc3C)cc2C(=O)N(C)c2cccnc21 [Entry 4012] | 7.00 to 7.30 | > 7.30 | 7.30 to 8.00 | > 50 nM
CCN1c2ncc(CCOc3ccc(C(=O)NS(C)(=O)=O)cc3C)cc2C(=O)N(C)c2cccnc21 [Entry 4013, 4-[2-(11-Ethyl-6,11-dihydro-5-methyl-6-oxo-5H-dipyrido[3,2-b:2′,3′-e][1,4]diazepin-8-yl)ethoxy]-3-methyl-N-(methylsulfonyl)benzamide] | < 7.00 | > 7.30 | 7.30 to 8.00 | > 50 nM
CCN1c2ncc(CCOc3ccc(C(=O)NCC(CC)(CC)C(=O)O)cc3C)cc2C(=O)N(C)c2cccnc21 [Entry 4014] | > 7.30 | > 7.30 | > 8.00 | 10 to 50 nM
CCN1c2ncc(CCOc3ccc(C(=O)NNC)cc3C)cc2C(=O)N(C)c2cccnc21 [Entry 4016] | > 7.30 | > 7.30 | > 8.00 | < 10 nM
CCN1c2ncc(CCOc3ccc(C(=O)NC(C)(C)CC(=O)O)cc3C)cc2C(=O)N(C)c2cccnc21 [Entry 4017] | < 7.00 | > 7.30 | > 8.00 | > 50 nM
CCN1c2ncc(CCOc3ccc(C(=O)NCC4(C(=O)O)CCCC4)cc3C)cc2C(=O)N(C)c2cccnc21 [Entry 4018] | < 7.00 | > 7.30 | > 8.00 | 10 to 50 nM
CCN1c2ncc(CCOc3ccc(S(=O)(=O)NCC(=O)O)cc3C)cc2C(=O)N(C)c2cccnc21 [Entry 4020] | > 7.30 | > 7.30 | < 7.30 | > 50 nM
